Test: mn = molality of the nth substance listed, in mol/kg
Conditions: 101 kPa, Liquid; for electrical conductivity: Frequency=0.001 MHz, Alternating current cell with electrodes; for speed of sound: Frequency=2 MHz; for mass density: Pycnometric method

O=[N+]([O-])[O-].O=[N+]([O-])[O-].[Mg+2] [magnesium nitrate] + CO
Conditions	electrical conductivity [S/m]	mass density [kg/m3]	speed of sound [m/s]	viscosity [mPa·s]
273.15 K, m1 = 0.0082	0.1095	–	1187.6	0.8298
273.15 K, m1 = 0.0545	0.3036	–	1194.3	0.8885
273.15 K, m1 = 0.0667	0.3337	–	1197.6	0.9109
273.15 K, m1 = 0.1047	0.4393	–	1202.4	0.9548
273.15 K, m1 = 0.2776	0.8097	–	1220.4	1.129
273.15 K, m1 = 0.4024	1.002	–	1228.8	1.336
273.15 K, m1 = 0.4555	1.043	–	1237	1.4
273.15 K, m1 = 0.6276	1.207	–	1253.3	1.836
273.15 K, m1 = 0.782	1.31	–	1270.9	2.128
273.15 K, m1 = 0.881	1.334	–	1274.9	2.18
273.15 K, m1 = 0.9116	1.344	–	1279.9	2.329
273.15 K, m1 = 1.004	1.372	–	1293.4	2.559
273.15 K, m1 = 1.259	1.361	–	1315.8	3.717
273.15 K, m1 = 1.492	1.314	–	1340.4	4.748
273.15 K, m1 = 1.71	1.281	–	1360.5	6.086
273.15 K, m1 = 1.875	1.238	–	1368.6	7.175
278.15 K, m1 = 0.0082	0.1165	–	1171.2	0.7627
278.15 K, m1 = 0.0545	0.321	–	1178.6	0.8108
278.15 K, m1 = 0.0667	0.3538	–	1181.3	0.836
278.15 K, m1 = 0.1047	0.4655	–	1185.8	0.8755
278.15 K, m1 = 0.2776	0.8637	–	1203	1.029
278.15 K, m1 = 0.4024	1.073	–	1214.1	1.213
278.15 K, m1 = 0.4555	1.117	–	1222.1	1.273
278.15 K, m1 = 0.6276	1.3	–	1235.6	1.732
278.15 K, m1 = 0.782	1.417	–	1254.4	1.905
278.15 K, m1 = 0.881	1.447	–	1257.8	1.938
278.15 K, m1 = 0.9116	1.459	–	1263.2	2.079
278.15 K, m1 = 1.004	1.494	–	1277.2	2.278
278.15 K, m1 = 1.259	1.494	–	1298.8	3.26
278.15 K, m1 = 1.492	1.453	–	1324.8	4.119
278.15 K, m1 = 1.71	1.436	–	1343.7	5.244
278.15 K, m1 = 1.875	1.383	–	1352.5	6.178
283.15 K, m1 = 0.0082	0.1221	–	1158.5	0.7006
283.15 K, m1 = 0.0545	0.3368	–	1163.6	0.7465
283.15 K, m1 = 0.0667	0.3738	–	1164.3	0.775
283.15 K, m1 = 0.1047	0.4908	–	1168.9	0.8049
283.15 K, m1 = 0.2776	0.9168	–	1187.4	0.9437
283.15 K, m1 = 0.4024	1.143	–	1198.4	1.109
283.15 K, m1 = 0.4555	1.192	–	1204.7	1.158
283.15 K, m1 = 0.6276	1.394	–	1219.1	1.562
283.15 K, m1 = 0.782	1.528	–	1238.3	1.719
283.15 K, m1 = 0.881	1.561	–	1241	1.743
283.15 K, m1 = 0.9116	1.573	–	1247.8	1.866
283.15 K, m1 = 1.004	1.618	–	1261.1	2.041
283.15 K, m1 = 1.259	1.632	–	1282.7	2.891
283.15 K, m1 = 1.492	1.597	–	1308.1	3.619
283.15 K, m1 = 1.71	1.59	–	1327.3	4.554
283.15 K, m1 = 1.875	1.538	–	1335.4	5.339
288.15 K, m1 = 0.0082	0.1281	–	1141.9	0.6479
288.15 K, m1 = 0.0545	0.3616	–	1145.7	0.69
288.15 K, m1 = 0.0667	0.393	–	1147.2	0.7149
288.15 K, m1 = 0.1047	0.5164	–	1152.3	0.743
288.15 K, m1 = 0.2776	0.9691	–	1170.8	0.8665
288.15 K, m1 = 0.4024	1.214	–	1182.6	1.016
288.15 K, m1 = 0.4555	1.267	–	1188.5	1.06
288.15 K, m1 = 0.6276	1.489	–	1203	1.408
288.15 K, m1 = 0.782	1.639	–	1221.6	1.556
288.15 K, m1 = 0.881	1.678	–	1225.4	1.575
288.15 K, m1 = 0.9116	1.69	–	1231.2	1.679
288.15 K, m1 = 1.004	1.744	–	1245.4	1.828
288.15 K, m1 = 1.259	1.772	–	1266.8	2.586
288.15 K, m1 = 1.492	1.746	–	1292.2	3.198
288.15 K, m1 = 1.71	1.738	–	1311.9	3.978
288.15 K, m1 = 1.875	1.698	–	1320.1	4.642
293.15 K, m1 = 0.0082	0.1341	–	1123.3	0.6014
293.15 K, m1 = 0.0545	0.3807	–	1129	0.6412
293.15 K, m1 = 0.0667	0.412	–	1130.5	0.6621
293.15 K, m1 = 0.1047	0.5415	–	1134.7	0.6872
293.15 K, m1 = 0.2776	1.021	–	1154.7	0.7989
293.15 K, m1 = 0.4024	1.277	–	1165.8	0.9313
293.15 K, m1 = 0.4555	1.341	–	1172.6	0.9778
293.15 K, m1 = 0.6276	1.584	–	1187.3	1.271
293.15 K, m1 = 0.782	1.752	–	1205.7	1.415
293.15 K, m1 = 0.881	1.797	–	1212	1.429
293.15 K, m1 = 0.9116	1.811	–	1215.2	1.517
293.15 K, m1 = 1.004	1.873	–	1229.3	1.65
293.15 K, m1 = 1.259	1.917	–	1250.2	2.306
293.15 K, m1 = 1.492	1.9	–	1275.7	2.833
293.15 K, m1 = 1.71	1.902	–	1295.5	3.5
293.15 K, m1 = 1.875	1.866	–	1304	4.058
298.15 K, m1 = 0.0082	0.1401	–	1108.5	0.5595
298.15 K, m1 = 0.0545	0.3953	–	1115.7	0.5957
298.15 K, m1 = 0.0667	0.4305	–	1113.6	0.6148
298.15 K, m1 = 0.1047	0.5657	–	1118.5	0.6361
298.15 K, m1 = 0.2776	1.073	–	1138.2	0.7381
298.15 K, m1 = 0.4024	1.343	–	1149	0.8609
298.15 K, m1 = 0.4555	1.416	–	1155.9	0.8966
298.15 K, m1 = 0.6276	1.68	–	1171.1	1.146
298.15 K, m1 = 0.782	1.866	–	1188.8	1.287
298.15 K, m1 = 0.881	1.918	–	1195.8	1.301
298.15 K, m1 = 0.9116	1.933	–	1198.8	1.369
298.15 K, m1 = 1.004	2.005	–	1212.9	1.491
298.15 K, m1 = 1.259	2.065	–	1232.2	2.078
298.15 K, m1 = 1.492	2.06	–	1259.5	2.541
298.15 K, m1 = 1.71	2.073	–	1279.9	3.094
298.15 K, m1 = 1.875	2.039	–	1288.1	3.556
300.6 K, m1 = 0.1047	–	798.24	–	–
300.7 K, m1 = 0.6276	–	850.07	–	–
300.8 K, m1 = 0.881	–	871.54	–	–
301.1 K, m1 = 1.492	–	934.05	–	–
